Measurements from ChEMBL document CHEMBL4808187, “Antiarrhythmic Hit to Lead Refinement in a Dish Using Patient-Derived iPSC Cardiomyocytes” (J Med Chem, 2021).
Activity calls are given as the source filed them. The rule behind the calls is not given here.

System: not listed separately
Test: Inhibition of sodium channel (unknown origin) expressed in HEK cells assessed as reduction in late inward sodium current by automated patch clamp method
Assay type: cell-based
Conditions: Homo sapiens, HEK293

Row | Structure (SMILES) | IC50
1 | Cc1cccc(OCC(N)c2ccccc2)c1C.Cl (centres undefined) | 1.03 µM
2 | Cc1cccc(C)c1OCC(N)C1CC1.Cl (centres undefined) | 7.4 µM
3 | CNC(C)COc1c(C)cccc1C.Cl (centres undefined) | 36 µM
4 | Cc1cc(C)cc(OCC(N)C2CC2)c1.Cl (centres undefined) | 10 µM

Species: Homo sapiens
Test: Selectivity index, ratio of IC50 for potassium channel (unknown origin) expressed in CHO cells assessed as reduction in potassium current to IC50 for sodium channel (unknown origin) expressed in HEK cells assessed as reduction in late inward sodium current
Conditions: not given

Row | Structure (SMILES) | Ratio IC50
5 | Cc1cccc(OCC(N)c2ccccc2)c1C.Cl (centres undefined) | 8.9
6 | Cc1cccc(C)c1OCC(N)C1CC1.Cl (centres undefined) | 4.1
7 | CNC(C)COc1c(C)cccc1C.Cl (centres undefined) | 1.2
8 | Cc1cc(C)cc(OCC(N)C2CC2)c1.Cl (centres undefined) | 4.6

System: not listed separately
Test: Inhibition of sodium channel (unknown origin) expressed in HEK cells assessed as reduction in peak sodium current by automated patch clamp method
Assay type: cell-based
Conditions: Homo sapiens, HEK293

Row | Structure (SMILES) | IC50
9 | Cc1cccc(OCC(N)c2ccccc2)c1C.Cl (centres undefined) | 10.9 µM
10 | Cc1cccc(C)c1OCC(N)C1CC1.Cl (centres undefined) | 130 µM
11 | CNC(C)COc1c(C)cccc1C.Cl (centres undefined) | 124 µM
12 | Cc1cc(C)cc(OCC(N)C2CC2)c1.Cl (centres undefined) | 76.8 µM

System: not listed separately
Test: Antiarrhythmic activity in hiPSC-CMs assessed as fold prolongation of action potential relative to control
Conditions: human, ipsc-cm

Row | Structure (SMILES) | Activity | fold change (FC)
13 | CCNC(COc1cccc(C)c1C)c1ccccc1.Cl (centres undefined) | Not Active | 
14 | Cc1cccc(C)c1OCC(N)C1CC1.Cl (centres undefined) |  | 2.805
15 | Cc1cccc(C)c1OCC(NC(=O)c1ccccc1)c1ccccc1 (centres undefined) | Not Active | 
16 | CCCNC(COc1cccc(C)c1C)c1ccccc1.Cl (centres undefined) | Not Active | 
17 | Cc1cc(C)cc(OCC(N)C2CC2)c1.Cl (centres undefined) |  | 2.12

System: not listed separately
Test: Inhibition of potassium channel (unknown origin) expressed in CHO cells assessed as reduction in potassium current by automated patch clamp method
Assay type: cell-based
Conditions: not given

Row | Structure (SMILES) | IC50
18 | Cc1cccc(OCC(N)c2ccccc2)c1C.Cl (centres undefined) | 9.2 µM
19 | Cc1cccc(C)c1OCC(N)C1CC1.Cl (centres undefined) | 30.1 µM
20 | CNC(C)COc1c(C)cccc1C.Cl (centres undefined) | 44.1 µM
21 | Cc1cc(C)cc(OCC(N)C2CC2)c1.Cl (centres undefined) | 45.8 µM

System: not listed separately
Test: (§1) Antiarrhythmic activity in patient-derived hiPSC-CMs carrying LQT3 mutation assessed as shortening dose of action potential
Assay type: functional, Homo sapiens, iPSC-CM
Conditions: not given

Row | Structure (SMILES) | Activity
22 | Cc1cccc(OCC(N)c2ccccc2)c1C.Cl (centres undefined) | 22 µM
23 | Cc1cccc(C)c1OCC(N)C1CC1.Cl (centres undefined) | 22 µM
24 | Cc1cccc(C)c1OCC(NC(=O)c1ccccc1)c1ccccc1 (centres undefined) | 66 µM
25 | Cc1cc(C)cc(OCC(N)C2CC2)c1.Cl (centres undefined) | 22 µM

System: iPSC-CM
Test: as §1
Assay type: functional
Conditions: Homo sapiens

Row | Structure (SMILES) | Activity
26 | CCNC(COc1cccc(C)c1C)c1ccccc1.Cl (centres undefined) | inactive
27 | CCCNC(COc1cccc(C)c1C)c1ccccc1.Cl (centres undefined) | inactive

System: not listed separately
Test: Antiarrhythmic activity in hiPSC-CMs assessed as dose for induction of early after depolarizations
Conditions: human, ipsc-cm

Row | Structure (SMILES) | Activity
28 | CCNC(COc1cccc(C)c1C)c1ccccc1.Cl (centres undefined) | Not Active
29 | Cc1cccc(OCC(N)c2ccccc2)c1C.Cl (centres undefined) | Not Active
30 | Cc1cccc(C)c1OCC(N)C1CC1.Cl (centres undefined) | 66 µM
31 | Cc1cccc(C)c1OCC(NC(=O)c1ccccc1)c1ccccc1 (centres undefined) | Not Active
32 | CNC(C)COc1c(C)cccc1C.Cl (centres undefined) | 22 µM
33 | CCCNC(COc1cccc(C)c1C)c1ccccc1.Cl (centres undefined) | Not Active
34 | Cc1cc(C)cc(OCC(N)C2CC2)c1.Cl (centres undefined) | 66 µM

System: not listed separately
Test: (§2) Antiarrhythmic activity in patient-derived hiPSC-CMs carrying LQT3 mutation assessed as cessation dose for cell beating
Assay type: functional, Homo sapiens, iPSC-CM
Conditions: not given

Row | Structure (SMILES) | Activity
35 | CCNC(COc1cccc(C)c1C)c1ccccc1.Cl (centres undefined) | 22 µM
36 | Cc1cccc(OCC(N)c2ccccc2)c1C.Cl (centres undefined) | 66 µM
37 | Cc1cccc(C)c1OCC(N)C1CC1.Cl (centres undefined) | 200 µM
38 | CNC(C)COc1c(C)cccc1C.Cl (centres undefined) | 133 µM
39 | CCCNC(COc1cccc(C)c1C)c1ccccc1.Cl (centres undefined) | 133 µM
40 | Cc1cc(C)cc(OCC(N)C2CC2)c1.Cl (centres undefined) | 200 µM

System: iPSC-CM
Test: as §2
Assay type: functional
Conditions: Homo sapiens

Row | Structure (SMILES) | Activity
41 | Cc1cccc(C)c1OCC(NC(=O)c1ccccc1)c1ccccc1 (centres undefined) | inactive

System: not listed separately
Test: Antiarrhythmic activity in hiPSC-CMs assessed as cessation dose of cell beating
Conditions: human, ipsc-cm

Row | Structure (SMILES) | Activity
42 | CCNC(COc1cccc(C)c1C)c1ccccc1.Cl (centres undefined) | 133 µM
43 | Cc1cccc(OCC(N)c2ccccc2)c1C.Cl (centres undefined) | 133 µM
44 | Cc1cccc(C)c1OCC(N)C1CC1.Cl (centres undefined) | Not Active
45 | Cc1cccc(C)c1OCC(NC(=O)c1ccccc1)c1ccccc1 (centres undefined) | Not Active
46 | CNC(C)COc1c(C)cccc1C.Cl (centres undefined) | 66 µM
47 | CCCNC(COc1cccc(C)c1C)c1ccccc1.Cl (centres undefined) | Not Active
48 | Cc1cc(C)cc(OCC(N)C2CC2)c1.Cl (centres undefined) | 200 µM

System: not listed separately
Test: Antiarrhythmic activity in patient-derived hiPSC-CMs carrying LQT3 mutation assessed as shortening of action potential duration
Assay type: functional, Homo sapiens
Conditions: ipsc-cm

Row | Structure (SMILES) | EC50
49 | CCNC(COc1cccc(C)c1C)c1ccccc1.Cl (centres undefined) | Not Active
50 | Cc1cccc(OCC(N)c2ccccc2)c1C.Cl (centres undefined) | Not Active
51 | CCCNC(COc1cccc(C)c1C)c1ccccc1.Cl (centres undefined) | Not Active

Same assay, conditions: ipsc-cm; read-out: EC50

Row | Structure (SMILES) | EC50
52 | Cc1cccc(C)c1OCC(N)C1CC1.Cl (centres undefined) | 0.8 µM
53 | Cc1cccc(C)c1OCC(NC(=O)c1ccccc1)c1ccccc1 (centres undefined) | 0.8 µM
54 | CNC(C)COc1c(C)cccc1C.Cl (centres undefined) | 1.5 µM
55 | Cc1cc(C)cc(OCC(N)C2CC2)c1.Cl (centres undefined) | 2.06 µM

System: not listed separately
Test: (§3) Antiarrhythmic activity in patient-derived hiPSC-CMs carrying LQT3 mutation assessed as fold shortening of action potential duration relative to control
Assay type: functional, Homo sapiens, iPSC-CM
Conditions: not given

Row | Structure (SMILES) | fold change (FC)
56 | Cc1cccc(OCC(N)c2ccccc2)c1C.Cl (centres undefined) | 1.406
57 | Cc1cccc(C)c1OCC(N)C1CC1.Cl (centres undefined) | 1.162
58 | Cc1cccc(C)c1OCC(NC(=O)c1ccccc1)c1ccccc1 (centres undefined) | 1.64
59 | Cc1cc(C)cc(OCC(N)C2CC2)c1.Cl (centres undefined) | 1.15

System: iPSC-CM
Test: as §3
Assay type: functional
Conditions: Homo sapiens

Row | Structure (SMILES) | fold change (FC)
60 | CCNC(COc1cccc(C)c1C)c1ccccc1.Cl (centres undefined) | inactive
61 | CCCNC(COc1cccc(C)c1C)c1ccccc1.Cl (centres undefined) | inactive

System: not listed separately
Test: Antiarrhythmic activity in hiPSC-CMs assessed as prolongation of action potential
Set-up: species or system Homo sapiens, iPSC-CM
Conditions: Homo sapiens, iPSC-CM; read-out: EC50

Row | Structure (SMILES) | EC50
62 | Cc1cccc(C)c1OCC(N)C1CC1.Cl (centres undefined) | 8 µM
63 | CNC(C)COc1c(C)cccc1C.Cl (centres undefined) | 7.8 µM

Same assay, conditions: ipsc-cm

Row | Structure (SMILES) | EC50
64 | Cc1cccc(OCC(N)c2ccccc2)c1C.Cl (centres undefined) | Not Active
